Test results: US8415379B2, “Pyridines” (Hoffmann-La Roche Inc., priority 2009, dated 2013)

molecular target: T1, GABA A α5 (human receptors of composition α5β3γ2) (Homo sapiens, UniProt P18507+P31644); test: [3H]flumazenil competition binding assay, human GABA A α5β3γ2 receptors in HEK293 cells; conditions: displacement of 0.5 nM [3H]flumazenil, HEK293 membranes, 1 hour at 4° C., means of two determinations, read-out: hKi GABA A α5
T1 construct: expressed in transfected cells; host or cells: HEK293 cells, transiently transfected; membrane homogenates used
Method: The affinity of compounds at GABA A receptor subtypes was measured by competition for [^3H]flumazenil (85 Ci/mmol; Roche) binding to HEK293 cells expressing rat (stably transfected) or human (transiently transfected) receptors of composition α1β3γ2, α2β3γ2, α3β3γ2 and α5β3γ2.
Cell pellets were suspended in Krebs-tris buffer (4.8 mM KCl, 1.2 mM CaCl2, 1.2 mM MgCl2, 120 mM NaCl, 15 mM Tris; pH 7.5; binding assay buffer), homogenized by polytron for ca. 20 sec on ice and centrifuged for 60 min at 4° C. (50000 g; Sorvall, rotor: SM24=20000 rpm). The cell pellets were re-suspended in Krebs-tris buffer and homogenized by polytron for ca. 15 sec on ice. Protein was measured (Bradford method, Bio-Rad) and aliquots of 1 mL were prepared and stored at −80° C.
Radioligand binding assays were carried out in a volume of […] (96-well plates) which contained […] of cell membranes, [^3H]flumazenil at a concentration of 1 nM for α1, α2 and α3 subunits and 0.5 nM for α5 subunits and the test compound in the range of […]. Nonspecific binding was defined by 10^−5 M diazepam and typically represented less than 5% of the total binding. Assays were incubated to equilibrium for 1 hour at 4° C. and harvested onto GF/C uni-filters (Packard) by filtration using a Packard harvester and washing with ice-cold wash buffer (50 mM Tris; pH 7.5). After drying, filter-retained radioactivity was detected by liquid scintillation counting. Ki values were calculated using Excel-Fit (Microsoft) and are the means of two determinations.

| Compound | Ki [nM] |
| --- | --- |
| Cc1onc(-c2ccccc2)c1COc1ccc(C(=O)NC2CCOC2)nc1 (racemic) [Example 3, Rac-5-(5-Methyl-3-phenyl-isoxazol-4-ylmethoxy)-pyridine-2-carboxylic acid (tetrahydro-furan-3-yl)-amide] | 13.9 |
| CCC(CO)NC(=O)c1ccc(OCc2c(-c3ccccn3)noc2C)cn1 (racemic) [Example 20, Rac-5-(5-Methyl-3-pyridin-2-yl-isoxazol-4-ylmethoxy)-pyridine-2-carboxylic acid (1-hydroxymethyl-propyl)-amide] | 8.1 |
| Cc1onc(-c2ccccc2)c1COc1ccc(C(=O)NCCO)nc1 [Example 1, 5-(5-Methyl-3-phenyl-isoxazol-4-ylmethoxy)-pyridine-2-carboxylic acid (2-hydroxy-ethyl)-amide] | 15.4 |
| Cc1onc(-c2ccccc2)c1COc1ccc(C(=O)NC(C)C)nc1 [Example 2, 5-(5-Methyl-3-phenyl-isoxazol-4-ylmethoxy)-pyridine-2-carboxylic acid isopropylamide] | 8.9 |
| Cc1onc(-c2ccccc2)c1COc1ccc(C(=O)NN(C)C)nc1 [Example 4, 5-(5-Methyl-3-phenyl-isoxazol-4-ylmethoxy)-pyridine-2-carboxylic acid N′,N′-dimethyl-hydrazide] | 26.5 |
| Cc1onc(-c2ccccc2)c1COc1ccc(C(=O)NN2CCOCC2)nc1 [Example 5, 5-(5-Methyl-3-phenyl-isoxazol-4-ylmethoxy)-pyridine-2-carboxylic acid morpholin-4-ylamide] | 17 |
| Cc1onc(-c2ccccn2)c1COc1ccc(C(=O)NC2CCOCC2)nc1 [Example 6, 5-(5-Methyl-3-pyridin-2-yl-isoxazol-4-ylmethoxy)-pyridine-2-carboxylic acid (tetrahydro-pyran-4-yl)-amide] | 4.8 |
| Cc1onc(-c2ccccn2)c1COc1ccc(C(=O)NC(C)C)nc1 [Example 7, 5-(5-Methyl-3-pyridin-2-yl-isoxazol-4-ylmethoxy)-pyridine-2-carboxylic acid isopropyl-amide] | 3.2 |
| Cc1onc(-c2ccccn2)c1COc1ccc(C(=O)NC(C)(C)CO)nc1 [Example 8, 5-(5-Methyl-3-pyridin-2-yl-isoxazol-4-ylmethoxy)-pyridine-2-carboxylic acid (2-hydroxy-1,1-dimethyl-ethyl)-amide] | 22.3 |
| Cc1onc(-c2ccccn2)c1COc1ccc(C(=O)NN2CCOCC2)nc1 [Example 9, 5-(5-Methyl-3-pyridin-2-yl-isoxazol-4-ylmethoxy)-pyridine-2-carboxylic acid morpholin-4-ylamide] | 4.4 |
| Cc1onc(-c2ccccn2)c1COc1ccc(C(=O)N2CCS(=O)(=O)CC2)nc1 [Example 10, (1,1-Dioxo-1,6-thiomorpholin-4-yl)-[5-(5-methyl-3-pyridin-2-yl-isoxazol-4-ylmethoxy)-pyridin-2-yl]-methanone] | 34.2 |
| Cc1onc(-c2ccccn2)c1COc1ccc(C(=O)NC2CC2)nc1 [Example 11, 5-(5-Methyl-3-pyridin-2-yl-isoxazol-4-ylmethoxy)-pyridine-2-carboxylic acid cyclopropyl amide] | 3.5 |
| Cc1onc(-c2ccccn2)c1COc1ccc(C(=O)NCC2CC2)nc1 [Example 12, 5-(5-Methyl-3-pyridin-2-yl-isoxazol-4-ylmethoxy)-pyridine-2-carboxylic acid cyclopropyl-methyl-amide] | 7.1 |
| Cc1onc(-c2ccccn2)c1COc1ccc(C(=O)NCC(F)(F)F)nc1 [Example 13, 5-(5-Methyl-3-pyridin-2-yl-isoxazol-4-ylmethoxy)-pyridine-2-carboxylic acid (2,2,2-trifluoro-ethyl)-amide] | 4.6 |
| Cc1onc(-c2ccccn2)c1COc1ccc(C(=O)NCCO)nc1 [Example 14, 5-(5-Methyl-3-pyridin-2-yl-isoxazol-4-ylmethoxy)-pyridine-2-carboxylic acid (2-hydroxy-ethyl)-amide] | 7.8 |
| CCNC(=O)c1ccc(OCc2c(-c3ccccn3)noc2C)cn1 [Example 15, 5-(5-Methyl-3-pyridin-2-yl-isoxazol-4-ylmethoxy)-pyridine-2-carboxylic acid ethylamide] | 5.8 |
| CNC(=O)c1ccc(OCc2c(-c3ccccn3)noc2C)cn1 [Example 16, 5-(5-Methyl-3-pyridin-2-yl-isoxazol-4-ylmethoxy)-pyridine-2-carboxylic acid methylamide] | 7.1 |
| Cc1onc(-c2ccccn2)c1COc1ccc(C(=O)N2CCSCC2)nc1 [Example 17, [5-(5-Methyl-3-pyridin-2-yl-isoxazol-4-ylmethoxy)-pyridin-2-yl]-thiomorpholin-4-yl-methanone] | 32.9 |
| Cc1onc(-c2ccccn2)c1COc1ccc(C(=O)N[C@H]2CCC[C@@H]2O)nc1 [Example 18, 5-(5-Methyl-3-pyridin-2-yl-isoxazol-4-ylmethoxy)-pyridine-2-carboxylic acid ((1S,2S)-2-hydroxy-cyclopentyl)-amide] | 5.6 |
| Cc1onc(-c2ccccn2)c1COc1ccc(C(=O)Nc2cnn(C)c2)nc1 [Example 19, 5-(5-Methyl-3-pyridin-2-yl-isoxazol-4-ylmethoxy)-pyridine-2-carboxylic acid (1-methyl-1H-pyrazol-4-yl)-amide] | 1.7 |
| CC[C@@H](CO)NC(=O)c1ccc(OCc2c(-c3ccccn3)noc2C)cn1 [Example 21, 5-(5-Methyl-3-pyridin-2-yl-isoxazol-4-ylmethoxy)-pyridine-2-carboxylic acid ((S)-1-hydroxymethyl-propyl)-amide] | 4.3 |
| Cc1onc(-c2ccccn2)c1COc1ccc(C(=O)N[C@@H](C)C(F)(F)F)nc1 [Example 22, 5-(5-Methyl-3-pyridin-2-yl-isoxazol-4-ylmethoxy)-pyridine-2-carboxylic acid ((S)-2,2,2-trifluoro-1-methyl-ethyl)-amide] | 5.6 |
| Cc1onc(-c2ccc(F)cn2)c1COc1ccc(C(=O)NC(C)C)nc1 [Example 23, 5-[3-(5-Fluoro-pyridin-2-yl)-5-methyl-isoxazol-4-ylmethoxy]-pyridine-2-carboxylic acid isopropylamide] | 3.3 |
| Cc1onc(-c2ccc(F)cn2)c1COc1ccc(C(=O)NC(C)(C)CO)nc1 [Example 24, 5-[3-(5-Fluoro-pyridin-2-yl)-5-methyl-isoxazol-4-ylmethoxy]-pyridine-2-carboxylic acid (2-hydroxy-1,1-dimethyl-ethyl)-amide] | 17.5 |
| Cc1onc(-c2ccc(F)cn2)c1COc1ccc(C(=O)NN2CCOCC2)nc1 [Example 25, 5-[3-(5-Fluoro-pyridin-2-yl)-5-methyl-isoxazol-4-ylmethoxy]-pyridine-2-carboxylic acid morpholin-4-ylamide] | 3.9 |
| Cc1onc(-c2ccc(F)cn2)c1COc1ccc(C(=O)N2CCS(=O)(=O)CC2)nc1 [Example 26, (1,1-Dioxo-1,6-thiomorpholin-4-yl)-{5-[3-(5-fluoro-pyridin-2-yl)-5-methyl-isoxazol-4-ylmethoxy]-pyridin-2-yl}-methanone] | 36.9 |
| Cc1onc(-c2ccc(F)cn2)c1COc1ccc(C(=O)NC2CC2)nc1 [Example 27, 5-[3-(5-Fluoro-pyridin-2-yl)-5-methyl-isoxazol-4-ylmethoxy]-pyridine-2-carboxylic acid cyclopropylamide] | 2.6 |
